In paper PMC11413853, “Discovery of VU6007496: Challenges in the Development of an M1 Positive Allosteric Modulator Backup Candidate” (ACS Chemical Neuroscience, 2024):
Like-named read-outs stand apart in the source and are kept apart here.

Columns and labels:
Hepatocyte MET ID, mouse = format: in vitro ADME
Text: We typically would not examine mouse hepatocyte MET ID, as mouse was not a safety species for the IND-enabling toxicology package, but with the unusual metabolism profile for human, and the lack of predictive cholinergic tox in the mouse phenotypic assay, we felt this was worthy of exploration. […] Clearly, based on the hepatocyte data, there is a tremendous difference in the concentration of parent 11 and metabolite composition, which sheds light on the mouse-rat disconnect for observed cholinergic toxicity in rat versus the more cholinergic sensitive mouse.

Serotonin (5-HT3) = test: Eurofins radioligand binding; parameters: species or system Human; details: specific binding
Bradykinin B1 = test: Eurofins radioligand binding; parameters: species or system Human; details: specific binding
GABAA, Muscimol, Central = test: Eurofins radioligand binding; parameters: species or system Rat; details: specific binding
Transporter, GABA = test: Eurofins radioligand binding; parameters: species or system Rat; details: specific binding
[1] = Rat satellite PK study, 3 mg/kg p.o.; format: in vivo; details: 3 mg/kg p.o. (NOR MED)
Text: Historically, our PK/PD for M1 PAMs in NOR has a strong correlation with total brain as opposed to unbound levels, with MEDs typically 0.25 to 0.4 of the rat EC50.[21] This may be due to higher endogenous cholinergic tone in healthy animals, and the in vitro PAM EC50s being derived from an arbitrarily selected EC20 concentration of ACh as a subthreshold value.

Serotonin (5-HT1A) = test: Eurofins radioligand binding; parameters: species or system Human; details: specific binding
[2] = Hepatocyte MET ID, monkey; format: in vitro ADME; details: 4-h incubation
Text: More concerning were the results generated via outsourced multispecies hepatocyte MET ID, which were drastically different than the liver S9MET ID. The extent of metabolism for VU6007496 with rat, dog, monkey and human hepatocytes was 64.7, 51.5, 63.9 and 99.5%, respectively (Figure 8). […] In human hepatocytes, PAM 11 was metabolized primarily to Metabolite A (24), the result of oxidative N-demethylation of the southern pyrazole. The other minor metabolites were oxidation on the tetrahydropyran moiety and included ring opening (Metabolite F, 25).[21]

Glucocorticoid = test: Eurofins radioligand binding; parameters: species or system Human; details: specific binding
Dopamine D2S = test: Eurofins radioligand binding; parameters: species or system Human; details: specific binding
Phorbol Ester = test: Eurofins radioligand binding; parameters: species or system Mouse; details: specific binding
[3] = tested on: 68 GPCRs, ion channels and transporters; test: Lead Profiling Screen, radioligand displacement (panel summary); format: binding; details: 10 μM; all 68 targets
Procedure: In a 4-strain Ames assay, with and without S9, both 11 and 12 were negative.
Table S1. Eurofins Lead Profiling Screen Data
This is a radioligand binding panel of 67 targets including GPCRs, ion channels, transporters and nuclear hormones. Biochemical assay results are presented as the percent inhibition of specific binding at a 10 μM concentration of VU6007496 (Compound 11).
Target/Protein Species % Inhibition at
Androgen (Testosterone) Human -24
Calcium Channel L-Type, Rat 12
Calcium Channel L-Type, Rat -8
Calcium Channel N-Type Rat 8
Epidermal Growth Factor (EGF) Human 5
GABAA, Flunitrazepam, Central Rat -3
GABAA, Muscimol, Central Rat -1
Glutamate, Kainate Rat -19
Glutamate, NMDA, Agonism Rat 0
Glutamate, NMDA, Glycine Rat 0
Glutamate, NMDA, Phencyclidine Rat 7
Imidazoline I2, Central Rat -9

[4] = tested on: Glutamate, NMDA, Phencyclidine; test: Eurofins radioligand binding; parameters: species or system Rat; details: specific binding
[5] = tested on: Transporter, Serotonin (SERT); test: Eurofins radioligand binding; parameters: species or system Human; details: specific binding
Imidazoline I2, Central = test: Eurofins radioligand binding; parameters: species or system Rat; details: specific binding
CYP2B6 = test: CYP induction (mRNA) in cryopreserved human hepatocytes, CYP2B6; format: in vitro ADME; details: three donors
Text: To advance 11 as a candidate and into IND-enabling studies, we next needed to better understand its CYP profile to minimize drug–drug interactions in the clinic. […] We were pleased to see the contribution of another CYP beyond 3A4 for the metabolism of 11.[21] In parallel, we investigated the ability of PAM 11 to induce the expression of CYP450s (measuring mRNA) in cryopreserved human hepatocytes from three separate donors.

MET ID in human liver S9 = format: in vitro ADME; details: based on MS peak areas
Text: (§1) Eight oxidative metabolites were identified, with the major metabolite in both rat and human being Metabolite A (VU6036463, 24), the result of oxidative N-demethylation of the southern pyrazole (Scheme 4). The majority of other oxidative metabolism occurred on the tetrahydropyran moiety and included ring opening, but there was no amide hydrolysis observed.[21]

Muscarinic M3 = test: Eurofins radioligand binding; parameters: species or system Human; details: specific binding
[6] = Rat dose escalation study (p.o., 30% captisol); format: in vivo; details: for Cmax: brain, read-out: total brain concentration at Cmax
Procedure: While awaiting more definitive MET ID studies in multispecies hepatocytes, we elected to perform a rat dose escalation study to assess exposures in a standard, tox-friendly oral vehicle (30% captisol) to lay the foundation for dose range finding/maximum tolerated dose (DRF/MTD) studies. Male Sprague–Dawley rats were dosed with VU6007496 (11) at doses of 3, 10, 30, 100, and 300 mg/kg p.o. in 30% captisol. […]. […] Recall, exposures in rat at the NOR MED were 990 nM total and 39.8 nM unbound brain concentrations, respectively. […]

MET ID in rat liver S9 = format: in vitro ADME; details: based on MS peak areas
Text: as §1

Androgen (Testosterone) = test: Eurofins radioligand binding; parameters: species or system Human; details: specific binding
[7] = tested on: Transporter, Norepinephrine (NET); test: Eurofins radioligand binding; parameters: species or system Human; details: specific binding
[8] = tested on: Epidermal Growth Factor (EGF); test: Eurofins radioligand binding; parameters: species or system Human; details: specific binding

## Cn1ccc(-c2ccc(Cc3cc(C(=O)NC4CCOCC4)nc4ccn(C)c34)cc2)n1 [compound 11]
Hepatocyte MET ID, mouse
  extent of metabolism, mouse hepatocytes: 95.4%
Serotonin (5-HT3)
  % Inhibition at 10 µM: -3%
Bradykinin B1
  % Inhibition at 10 µM: 21%
GABAA, Muscimol, Central
  % Inhibition at 10 µM: -1%
Transporter, GABA
  % Inhibition at 10 µM: -17%
[1]
  total brain concentration: 990 nM
  unbound brain concentration: 0.0398 µM
Serotonin (5-HT1A)
  % Inhibition at 10 µM: 7%
[2]
  extent of metabolism, monkey hepatocytes: 63.9%
Glucocorticoid
  % Inhibition at 10 µM: 5%
Dopamine D2S
  % Inhibition at 10 µM: 5%
Phorbol Ester
  % Inhibition at 10 µM: -1%
[3]
  radioligand displacement, Lead Profiling Screen: < 50%
[4]
  % Inhibition at 10 µM: 7%
[5]
  % Inhibition at 10 µM: -7%
Imidazoline I2, Central
  % Inhibition at 10 µM: -9%
CYP2B6
  CYP2B6 induction (mRNA): ~8 fold
MET ID in human liver S9
  extent of metabolism, human liver S9: 58.1%
Muscarinic M3
  % Inhibition at 10 µM: -4%
[6]; male, Sprague-Dawley, po, rat, 100 mg/kg p.o.
  Cmax: 9.1 µM
[6]; male, Sprague-Dawley, po, rat, 300 mg/kg p.o.
  Cmax: 17.2 µM
[6]; male, Sprague-Dawley, in vivo, po, rat, 3, 10, 30, 100, and 300 mg/kg p.o., all doses
  Tmax: < 2 h
[6]; rat, 100 mg/kg p.o.
  fold over the NOR MED exposure: ~9 fold
  unbound brain concentration at Cmax: 0.298 µM
[6]; rat, 300 mg/kg p.o.
  fold over the NOR MED exposure: ~17 fold
  unbound brain concentration at Cmax: 0.569 µM
[6]; rat, 100 and 300 mg/kg p.o. dose groups, after 4.5 h
  adverse cholinergic events: severe adverse cholinergic events
[6]; rat, from 3 to 30 mg/kg p.o.
  dose proportionality of exposure: Linear dose escalation
[6]; rats, 30 mg/kg p.o.
  cholinergic toxicity: not observed
[6]; rats, 30 mg/kg p.o. vs MED 3 mg/kg
  window from the MED: 10 fold
MET ID in rat liver S9
  extent of metabolism, rat liver S9: 36.8%
Androgen (Testosterone)
  % Inhibition at 10 µM: -24%
[7]
  % Inhibition at 10 µM: 12%
[8]
  % Inhibition at 10 µM: 5%
